Assay results published in ChEMBL document CHEMBL5465560, “Selectivity Literature for EUbOPEN Chemogenomic Library” (2024).

Key:
[1] = biological target: Mitogen-activated protein kinase kinase kinase kinase 1 (Homo sapiens) (UniProt Q92918); test: Selectivity interaction (Kinase panel (KiNativ target engagement assay in Jurkat cells)) EUB0001635a MAP4K1; format: cell-based; details: Selectivity number of off-targets 0.0, Selectivity number of targets 233.0, Source Knowledge https://www.sciencedirect.com/science/article/pii/S2451945619300674?via%3Dihub, at 1 µM
[2] = biological target: T1, Protein kinase C epsilon type (Homo sapiens) (UniProt Q02156); test: Selectivity interaction (KinomeScan (DiscoverX)) EUB0000045b PRKCE
T1 sequence (whole entry): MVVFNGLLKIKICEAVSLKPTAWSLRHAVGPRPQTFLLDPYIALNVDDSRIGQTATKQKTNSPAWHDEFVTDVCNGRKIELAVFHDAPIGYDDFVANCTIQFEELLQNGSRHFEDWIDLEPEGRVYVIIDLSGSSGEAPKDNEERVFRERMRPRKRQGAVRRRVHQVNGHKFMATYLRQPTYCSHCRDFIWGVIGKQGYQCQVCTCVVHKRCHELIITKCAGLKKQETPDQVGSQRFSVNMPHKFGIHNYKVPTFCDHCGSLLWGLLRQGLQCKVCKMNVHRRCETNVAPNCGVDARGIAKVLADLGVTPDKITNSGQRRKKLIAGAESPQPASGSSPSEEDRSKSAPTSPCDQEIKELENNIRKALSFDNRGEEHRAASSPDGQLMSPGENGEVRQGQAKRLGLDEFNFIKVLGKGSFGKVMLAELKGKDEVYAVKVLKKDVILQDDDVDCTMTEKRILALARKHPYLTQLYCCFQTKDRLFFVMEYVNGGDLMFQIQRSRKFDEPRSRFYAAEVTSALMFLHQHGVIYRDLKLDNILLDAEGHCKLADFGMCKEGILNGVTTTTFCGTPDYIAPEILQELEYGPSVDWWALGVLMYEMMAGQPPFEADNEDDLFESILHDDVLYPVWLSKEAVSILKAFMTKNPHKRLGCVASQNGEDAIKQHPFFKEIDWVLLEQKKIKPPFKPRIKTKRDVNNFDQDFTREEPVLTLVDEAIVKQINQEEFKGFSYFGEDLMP

[3] = biological target: T2, Non-receptor tyrosine-protein kinase TNK1 (Homo sapiens) (UniProt Q13470); test: Selectivity interaction (KinomeScan (DiscoverX)) EUB0000045b TNK1
T2 sequence (whole entry): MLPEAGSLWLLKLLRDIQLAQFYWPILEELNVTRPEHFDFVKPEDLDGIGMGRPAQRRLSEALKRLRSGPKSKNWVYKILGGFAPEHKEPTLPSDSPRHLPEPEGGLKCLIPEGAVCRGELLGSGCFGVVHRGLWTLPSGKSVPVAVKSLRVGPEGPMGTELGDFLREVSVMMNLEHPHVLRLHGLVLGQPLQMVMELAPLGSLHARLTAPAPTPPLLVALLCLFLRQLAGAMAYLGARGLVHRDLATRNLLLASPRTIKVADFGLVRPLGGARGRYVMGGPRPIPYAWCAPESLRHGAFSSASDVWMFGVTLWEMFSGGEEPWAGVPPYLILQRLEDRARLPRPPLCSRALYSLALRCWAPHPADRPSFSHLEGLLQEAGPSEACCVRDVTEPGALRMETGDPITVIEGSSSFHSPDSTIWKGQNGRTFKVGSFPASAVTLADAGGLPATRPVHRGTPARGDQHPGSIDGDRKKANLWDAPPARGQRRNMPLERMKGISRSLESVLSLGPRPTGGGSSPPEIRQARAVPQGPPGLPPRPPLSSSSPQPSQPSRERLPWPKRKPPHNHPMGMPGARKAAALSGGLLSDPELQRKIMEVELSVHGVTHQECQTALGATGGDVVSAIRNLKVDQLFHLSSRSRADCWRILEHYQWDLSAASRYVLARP

[4] = biological target: Ribosomal protein S6 kinase alpha-5 (Homo sapiens) (UniProt O75582); details: at 10 µM
[5] = biological target: Androgen receptor (Homo sapiens) (UniProt P10275); test: Selectivity interaction (Eurofins CEREP Diversity Profile (receptors and ion channels)) EUB0000279b AR; details: at 10 µM
[6] = biological target: SRSF protein kinase 2 (Homo sapiens) (UniProt P78362); test: Selectivity interaction (KinomeScan (DiscoverX)) EUB0001049a SRPK2; details: at 1 µM
[7] = biological target: T3, Cyclin-dependent kinase-like 2 (Homo sapiens) (UniProt Q92772); test: Selectivity interaction (KINOMEscan (DiscoverX)) EUB0001868a CDKL2; details: at 1 µM
T3 sequence (whole entry): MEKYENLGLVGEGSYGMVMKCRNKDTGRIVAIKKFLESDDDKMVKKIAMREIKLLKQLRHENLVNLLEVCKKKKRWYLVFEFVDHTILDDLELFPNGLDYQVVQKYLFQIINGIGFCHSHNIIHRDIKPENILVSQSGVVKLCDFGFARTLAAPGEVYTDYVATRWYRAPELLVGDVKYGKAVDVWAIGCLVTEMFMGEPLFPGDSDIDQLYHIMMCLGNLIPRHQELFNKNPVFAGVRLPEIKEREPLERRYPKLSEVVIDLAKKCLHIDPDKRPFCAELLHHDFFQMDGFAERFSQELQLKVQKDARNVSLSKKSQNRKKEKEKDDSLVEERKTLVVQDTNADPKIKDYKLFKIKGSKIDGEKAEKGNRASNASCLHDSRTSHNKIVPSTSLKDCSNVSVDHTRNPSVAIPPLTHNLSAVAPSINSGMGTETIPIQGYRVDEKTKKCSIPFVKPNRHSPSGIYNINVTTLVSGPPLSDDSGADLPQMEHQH

[8] = biological target: Focal adhesion kinase 1 (Homo sapiens, UniProt Q05397); test: Selectivity interaction (Upstate Kinase Profiler service (Millipore)) EUB0000056c PTK2; details: at 1 µM
[9] = biological target: Serine/threonine-protein kinase WNK1 (Homo sapiens) (UniProt Q9H4A3); test: Selectivity interaction (KinomeScan (DiscoverX)) EUB0001619a WNK1; details: at 1 µM
[10] = biological target: TGF-beta receptor type-2 (Homo sapiens) (UniProt P37173); details: at 10 µM
[11] = biological target: Cyclin-dependent kinase 3 (Homo sapiens) (UniProt Q00526); test: Selectivity interaction (KinomeScan (DiscoverX)) EUB0000092b CDK3; details: at 10 µM
Chain of Cyclin-dependent kinase 3 (Homo sapiens) (Q00526 whole entry, looked up): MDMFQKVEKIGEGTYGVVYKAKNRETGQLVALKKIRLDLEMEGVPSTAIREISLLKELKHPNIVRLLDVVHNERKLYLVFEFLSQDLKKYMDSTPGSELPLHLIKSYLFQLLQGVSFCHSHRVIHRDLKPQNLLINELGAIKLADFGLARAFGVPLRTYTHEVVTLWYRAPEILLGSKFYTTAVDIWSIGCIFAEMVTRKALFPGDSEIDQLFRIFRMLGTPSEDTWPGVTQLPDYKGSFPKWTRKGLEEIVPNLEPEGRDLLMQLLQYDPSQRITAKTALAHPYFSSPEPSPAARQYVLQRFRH

Chain of TGF-beta receptor type-2 (Homo sapiens) (P37173 whole entry): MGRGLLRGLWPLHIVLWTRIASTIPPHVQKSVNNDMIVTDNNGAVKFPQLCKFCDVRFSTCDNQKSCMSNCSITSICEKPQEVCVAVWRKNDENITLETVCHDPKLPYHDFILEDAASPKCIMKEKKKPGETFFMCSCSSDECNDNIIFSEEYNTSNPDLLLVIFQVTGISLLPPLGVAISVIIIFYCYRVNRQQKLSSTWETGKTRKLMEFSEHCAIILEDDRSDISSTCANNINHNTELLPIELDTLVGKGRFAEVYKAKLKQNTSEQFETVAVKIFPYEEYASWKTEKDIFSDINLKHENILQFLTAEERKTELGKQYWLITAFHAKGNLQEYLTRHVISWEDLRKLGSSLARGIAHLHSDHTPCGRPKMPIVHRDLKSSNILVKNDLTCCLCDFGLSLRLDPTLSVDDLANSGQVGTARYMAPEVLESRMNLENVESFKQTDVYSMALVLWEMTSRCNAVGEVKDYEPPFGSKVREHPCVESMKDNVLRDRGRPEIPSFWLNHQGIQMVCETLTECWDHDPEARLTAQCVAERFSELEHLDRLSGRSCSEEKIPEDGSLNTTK
Chain of SRSF protein kinase 2 (Homo sapiens) (P78362 whole entry, looked up): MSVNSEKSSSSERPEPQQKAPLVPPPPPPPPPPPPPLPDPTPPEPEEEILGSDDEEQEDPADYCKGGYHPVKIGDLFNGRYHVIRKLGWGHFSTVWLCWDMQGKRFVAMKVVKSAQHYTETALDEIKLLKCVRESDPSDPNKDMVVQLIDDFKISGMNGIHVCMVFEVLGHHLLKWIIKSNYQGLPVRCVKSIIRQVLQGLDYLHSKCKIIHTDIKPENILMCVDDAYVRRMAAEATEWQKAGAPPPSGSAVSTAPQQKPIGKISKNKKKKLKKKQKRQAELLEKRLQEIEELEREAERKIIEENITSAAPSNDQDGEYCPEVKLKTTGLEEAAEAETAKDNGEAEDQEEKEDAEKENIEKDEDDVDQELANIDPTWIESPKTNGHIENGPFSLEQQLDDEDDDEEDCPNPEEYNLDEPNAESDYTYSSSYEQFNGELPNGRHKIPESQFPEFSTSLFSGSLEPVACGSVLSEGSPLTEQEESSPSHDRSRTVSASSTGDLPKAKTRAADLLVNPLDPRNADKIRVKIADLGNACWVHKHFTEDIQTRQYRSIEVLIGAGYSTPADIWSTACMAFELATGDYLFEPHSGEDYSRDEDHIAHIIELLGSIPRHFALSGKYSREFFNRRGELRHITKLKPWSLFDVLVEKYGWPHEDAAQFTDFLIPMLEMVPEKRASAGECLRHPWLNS
Chain of Androgen receptor (Homo sapiens) (P10275 whole entry): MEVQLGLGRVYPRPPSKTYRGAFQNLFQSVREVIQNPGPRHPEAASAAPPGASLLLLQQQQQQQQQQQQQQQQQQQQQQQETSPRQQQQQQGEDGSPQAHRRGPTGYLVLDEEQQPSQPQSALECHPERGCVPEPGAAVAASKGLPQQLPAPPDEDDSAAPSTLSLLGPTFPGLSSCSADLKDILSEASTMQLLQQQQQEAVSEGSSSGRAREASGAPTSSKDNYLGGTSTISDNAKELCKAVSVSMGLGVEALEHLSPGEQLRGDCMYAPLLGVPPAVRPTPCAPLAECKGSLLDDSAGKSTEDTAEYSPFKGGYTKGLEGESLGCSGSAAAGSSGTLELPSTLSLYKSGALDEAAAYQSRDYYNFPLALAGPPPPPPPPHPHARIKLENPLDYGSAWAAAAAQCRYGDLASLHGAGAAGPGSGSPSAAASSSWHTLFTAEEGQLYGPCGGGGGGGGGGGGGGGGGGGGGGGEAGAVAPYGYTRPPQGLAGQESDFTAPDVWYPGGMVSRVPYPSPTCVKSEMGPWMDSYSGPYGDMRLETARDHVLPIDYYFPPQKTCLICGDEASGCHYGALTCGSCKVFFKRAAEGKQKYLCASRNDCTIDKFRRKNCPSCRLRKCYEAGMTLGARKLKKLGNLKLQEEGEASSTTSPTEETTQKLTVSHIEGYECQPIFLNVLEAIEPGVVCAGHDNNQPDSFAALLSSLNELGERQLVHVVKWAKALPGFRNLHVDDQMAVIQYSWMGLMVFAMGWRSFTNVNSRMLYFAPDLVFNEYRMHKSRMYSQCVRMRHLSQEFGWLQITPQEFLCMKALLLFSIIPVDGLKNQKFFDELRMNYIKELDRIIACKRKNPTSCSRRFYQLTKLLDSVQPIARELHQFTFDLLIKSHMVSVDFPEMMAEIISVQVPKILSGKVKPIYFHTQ
Chain of Focal adhesion kinase 1 (Q05397 2-1052 limits assumed): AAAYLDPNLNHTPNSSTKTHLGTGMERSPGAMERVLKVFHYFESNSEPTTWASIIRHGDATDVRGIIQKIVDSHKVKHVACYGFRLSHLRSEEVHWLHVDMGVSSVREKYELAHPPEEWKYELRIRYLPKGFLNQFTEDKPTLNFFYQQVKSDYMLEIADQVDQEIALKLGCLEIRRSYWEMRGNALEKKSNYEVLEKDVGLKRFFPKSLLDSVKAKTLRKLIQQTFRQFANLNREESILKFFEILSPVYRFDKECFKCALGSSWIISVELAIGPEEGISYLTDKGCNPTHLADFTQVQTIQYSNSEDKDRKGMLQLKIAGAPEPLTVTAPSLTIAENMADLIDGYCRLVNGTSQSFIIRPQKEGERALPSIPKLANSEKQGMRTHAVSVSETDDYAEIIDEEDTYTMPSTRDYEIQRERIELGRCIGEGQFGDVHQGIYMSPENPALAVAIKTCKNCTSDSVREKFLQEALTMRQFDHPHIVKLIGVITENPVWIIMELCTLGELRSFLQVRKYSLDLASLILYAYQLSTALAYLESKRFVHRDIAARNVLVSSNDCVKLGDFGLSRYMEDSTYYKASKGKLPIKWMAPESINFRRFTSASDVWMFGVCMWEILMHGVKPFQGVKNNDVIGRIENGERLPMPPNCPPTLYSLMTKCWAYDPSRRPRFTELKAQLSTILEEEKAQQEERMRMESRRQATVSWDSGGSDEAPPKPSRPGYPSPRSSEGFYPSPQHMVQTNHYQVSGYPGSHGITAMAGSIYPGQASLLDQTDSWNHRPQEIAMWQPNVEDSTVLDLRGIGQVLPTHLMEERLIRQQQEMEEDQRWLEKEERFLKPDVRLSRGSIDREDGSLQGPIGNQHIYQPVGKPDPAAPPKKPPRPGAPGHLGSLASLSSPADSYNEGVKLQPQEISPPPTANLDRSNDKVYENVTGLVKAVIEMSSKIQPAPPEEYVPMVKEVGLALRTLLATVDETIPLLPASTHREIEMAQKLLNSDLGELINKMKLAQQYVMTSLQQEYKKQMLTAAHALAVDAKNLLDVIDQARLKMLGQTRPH
Chain of Mitogen-activated protein kinase kinase kinase kinase 1 (Homo sapiens) (Q92918 whole entry, looked up): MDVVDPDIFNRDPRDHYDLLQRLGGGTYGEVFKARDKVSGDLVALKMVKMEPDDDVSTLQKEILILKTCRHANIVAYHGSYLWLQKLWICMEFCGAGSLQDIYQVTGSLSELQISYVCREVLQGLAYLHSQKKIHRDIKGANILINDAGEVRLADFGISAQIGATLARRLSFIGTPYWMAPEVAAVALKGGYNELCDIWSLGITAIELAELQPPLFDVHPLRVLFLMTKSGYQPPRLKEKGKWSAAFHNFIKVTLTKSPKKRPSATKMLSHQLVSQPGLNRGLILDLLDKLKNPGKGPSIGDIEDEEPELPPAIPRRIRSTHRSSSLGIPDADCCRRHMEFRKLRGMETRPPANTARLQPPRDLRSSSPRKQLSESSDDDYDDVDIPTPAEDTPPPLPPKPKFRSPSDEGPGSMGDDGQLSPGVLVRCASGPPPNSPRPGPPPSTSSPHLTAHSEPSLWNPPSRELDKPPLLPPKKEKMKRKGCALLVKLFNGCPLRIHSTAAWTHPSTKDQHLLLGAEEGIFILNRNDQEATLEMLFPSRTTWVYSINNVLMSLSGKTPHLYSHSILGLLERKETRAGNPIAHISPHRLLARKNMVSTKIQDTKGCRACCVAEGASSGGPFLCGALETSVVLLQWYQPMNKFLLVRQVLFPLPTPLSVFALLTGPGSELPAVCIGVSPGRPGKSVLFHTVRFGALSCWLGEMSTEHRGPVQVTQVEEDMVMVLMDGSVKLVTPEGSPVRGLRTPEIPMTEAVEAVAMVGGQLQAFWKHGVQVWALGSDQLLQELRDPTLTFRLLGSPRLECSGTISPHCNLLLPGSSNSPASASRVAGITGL

**Q.** `C=CC(=O)Nc1ccc(C(=O)Nc2[nH]nc3c2CN(C(=O)N[C@H](CN(C)C)c2ccccc2)C3(C)C)cc1` was tested. Which % of engagement [1] did it give?
**A.** 4.4%

**Q.** How did the % of control ([2]; at 1 µM) turn out when `C=CC(=O)Nc1cc(-n2c(=O)ccc3cnc4ccc(-c5ccc(NS(C)(=O)=O)cc5)cc4c32)ccc1C` was run?
**A.** 100%

**Q.** What about the % of control ([2]; at 10 µM) of the same compound?
**A.** 75%

**Q.** And the % of control ([3]; at 1 µM)?
**A.** 100%

**Q.** And the % of control ([3]; at 10 µM)?
**A.** 100%

**Q.** How did the % of control [4] turn out when `Cc1cc([C@@H](C)Nc2ccccc2C(=O)O)c2nc(N3CCOCC3)cc(=O)n2c1` [AZD-6482] was run?
**A.** 81%

**Q.** How did the % of control [5] turn out when `CC(=O)c1cc(-c2ccccc2OCC2CC2)c2ncccn12` was run?
**A.** 105%

**Q.** Which % of control [6] does the source give for `COc1cc(Nc2nc(C)cc(-c3cnn4nc(OC)ccc34)n2)cc(C(F)(F)F)c1` here?
**A.** 100%

**Q.** How did the % of control [7] turn out when `Cc1cc(-c2ccnc(Nc3cnn(C)c3)n2)ccc1CNC(=O)N1CC(OC(C)C)C1` was run?
**A.** 15%

**Q.** `Cc1ccc(-c2ccc3c(ccc4sc5c(c43)NC[C@@H](C)NC5=O)n2)cn1` was tested. Which % of inhibition [8] did it give?
**A.** -2%

**Q.** `N#Cc1cccc(-c2c[nH]c3ncnc(N4CCOCC4)c23)c1` was tested. Which % of control [9] did it give?
**A.** 100%

**Q.** For `CCN(CC)CCCCNc1ncc2cc(-c3cc(OC)cc(OC)c3)c(NC(=O)NC(C)(C)C)nc2n1`, which % of control [10] is on record?
**A.** 100%

**Q.** How did the % of control [11] turn out when `CCC(=O)N1CCN(c2ccc(-n3c(=O)ccc4cnc5ccc(-c6cnc7ccccc7c6)cc5c43)cc2C(F)(F)F)CC1` was run?
**A.** 100%
